Data on two molecules can be found in patent publication US11970497B2, “Tricyclic AKR1C3 dependent KARS inhibitors” (Novartis AG, priority 2019, dated 2024).

Each structure is given as a SMILES string.

Holding throughout (experiment): Expanded lung cancer cell line proliferation assay
What all share (assay type): cell-based

The subject of one experiment is CAL-12T. Conditions: Homo sapiens, 72 h, average of PrestoBlue and Cell Titer Glo, AKR1C3 23.6 TPM, read-out: Absolute Qualified AC50. Summed up:
(§1)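 Read-out: PrestoBlue (resazurin) plus CellTiter-Glo (ATP), multiplexed; Absolute Qualified AC50 averaged across the two. Compounds dosed 8-point from 1 μM top (1:3.16 steps), 72 h, 0.3% DMSO; normalized to DMSO neutral and 30 μM MG132 active controls.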

Another experiment concerns NCI-H1435. Conditions: NCI-H1435, 72 h, average of PrestoBlue and Cell Titer Glo; AKR1C3 171.1 TPM; read-out: Absolute Qualified AC50. Summed up: as §1
For orientation: In ATP-based viability assays light output follows the ATP content of the culture.

A further experiment relates to NCI-H596. Conditions: Homo sapiens; NCI-H596, 72 h, average of PrestoBlue and Cell Titer Glo; AKR1C3 265.6 TPM; read-out: Absolute Qualified AC50. Summed up:
as §1

The test system of a further experiment is NCI-H2023. As to conditions: NCI-H2023, 72 h, average of PrestoBlue and Cell Titer Glo; AKR1C3 1424.8 TPM; read-out: Absolute Qualified AC50. Summed up:
as §1

In another experiment the test system is NCI-H1373. As to conditions: Homo sapiens; NCI-H1373, 72 h, average of PrestoBlue and Cell Titer Glo; AKR1C3 8 TPM; read-out: Absolute Qualified AC50. Summed up: as §1
A further experiment has as its system NCI-H2122. As to conditions: Homo sapiens; NCI-H2122, 72 h, average of PrestoBlue and Cell Titer Glo; AKR1C3 1507.5 TPM; read-out: Absolute Qualified AC50. Summed up: as §1
Another experiment has as its system NCI-H226. As to conditions: Homo sapiens; NCI-H226, 72 h, average of PrestoBlue and Cell Titer Glo; AKR1C3 2.9 TPM; read-out: Absolute Qualified AC50. Summed up:
as §1

The subject of another experiment is NCI-H1650. Conditions: Homo sapiens; NCI-H1650, 72 h, average of PrestoBlue and Cell Titer Glo; AKR1C3 1.3 TPM; read-out: Absolute Qualified AC50. The method, boiled down: as §1
The test system of another experiment is A549. As to conditions: Homo sapiens; A549, 72 h, average of PrestoBlue and Cell Titer Glo; AKR1C3 3017.9 TPM; read-out: Absolute Qualified AC50. Summed up: as §1
For a further experiment, the system named is NCI-H810. Conditions: Homo sapiens; NCI-H810, 72 h, average of PrestoBlue and Cell Titer Glo; AKR1C3 52.5 TPM; read-out: Absolute Qualified AC50. The method, boiled down: as §1
Another experiment relates to NCI-H2286. Conditions: Homo sapiens; NCI-H2286, 72 h, average of PrestoBlue and Cell Titer Glo; AKR1C3 0.9 TPM; read-out: Absolute Qualified AC50. The method, boiled down: as §1
Another experiment deals with DMS-53. As to conditions: Homo sapiens; DMS-53, 72 h, average of PrestoBlue and Cell Titer Glo; AKR1C3 59.7 TPM; read-out: Absolute Qualified AC50. Summed up: as §1
The next experiment relates to NCI-H520. Conditions: Homo sapiens; NCI-H520, 72 h, average of PrestoBlue and Cell Titer Glo; AKR1C3 608.9 TPM; read-out: Absolute Qualified AC50. The method, boiled down: as §1
Another experiment deals with PC-14. Conditions: Homo sapiens; PC-14, 72 h, average of PrestoBlue and Cell Titer Glo; AKR1C3 1466.3 TPM; read-out: Absolute Qualified AC50. Summed up:
as §1

One may read the AC50 as the concentration at which the activity in the assay is half-maximal.

For `CN1c2ccc(F)cc2C(=O)CC12CCN(C(=O)NCc1ccc(F)c(NCCO)c1)CC2` [Example 36, 6′-fluoro-N-(4-fluoro-3-((2-hydroxyethyl)amino)benzyl)-1′-methyl-4′-oxo-3′,4′-dihydro-1′H-spiro[piperidine-4,2′-quinoline]-1-carboxamide], the half-maximal activity concentration (AC50) with CAL-12T is > 1000 nM; in the experiment with NCI-H1435, 478 nM; in the experiment on NCI-H596, 754 nM; in the experiment on NCI-H2023, 347 nM; with NCI-H1373 it was > 1000 nM; in the experiment with NCI-H2122, 258 nM. For the same molecule, the AC50 with NCI-H226 is > 1000 nM; with NCI-H1650, > 1000 nM; in the experiment with A549, 301 nM; in the experiment on NCI-H810, > 1000 nM; with NCI-H2286, > 1000 nM; in the experiment on DMS-53, > 1000 nM. Besides, the figures for the AC50 in the experiment with NCI-H520 and in the experiment with PC-14 were > 1000 nM and 308 nM, respectively.
Turning to `O=C1CC2(CCN(C(=O)NCc3ccc(F)cc3)CC2)Nc2ccc(F)cc21` [Example 40], the AC50 is > 1000 nM with CAL-12T; 273 nM with NCI-H1435; 334 nM in the experiment on NCI-H596; 63 nM in the experiment on NCI-H2023; > 1000 nM in the experiment on NCI-H1373; 56 nM in the experiment with NCI-H2122. Further, the AC50 with NCI-H226 was > 1000 nM; with NCI-H1650, > 1000 nM; with A549, 56 nM; in the experiment on NCI-H810, 983 nM; in the experiment on NCI-H2286, > 1000 nM; in the experiment on DMS-53, > 1000 nM. Further, the AC50 with NCI-H520 was > 1000 nM; in the experiment on PC-14, 92 nM.
